Reference: patent publication US20170000133A1, “BENZOXABOROLE FUNGICIDES” (SYNGENTA PARTICIPATIONS AG, priority 2013, published 2017)

How the values were obtained:
Phytophthora infestans = assay: whole plant or invertebrate; assay type: in vivo; conditions: in Solanum lycopersicum, foliar, read-out: disease control
Plasmopara viticola = assay: whole plant or invertebrate; assay type: in vivo; conditions: foliar, read-out: disease control
Pythium ultimum = Pythium ultimum / liquid culture (seedling damping off); assay type: cell-based; conditions: Globisporangium ultimum; 200 ppm; potato dextrose broth, 24° C., 2-3 days after application; read-out: disease control (inhibition of growth determined photometrically)
Gaeumannomyces graminis = Gaeumannomyces graminis / liquid culture (take-all of cereals); assay type: cell-based; conditions: PDB potato dextrose broth, 24° C., 4-5 days after application, read-out: disease control (inhibition of growth determined photometrically)
Outline: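 Growth inhibition measured photometrically 4–5 days post-application, following incubation at 24 °C. Test compound, applied from DMSO at 200 ppm, mixed with fungal mycelial fragments in potato dextrose broth.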

[1] = test system: Monographella nivalis (Microdochium nivale); assay: Monographella nivalis (Microdochium nivale) / liquid culture (foot rot cereals); assay type: cell-based; conditions: PDB potato dextrose broth, 24° C., 4-5 days after application, read-out: disease control (inhibition of growth determined photometrically)
[2] = test system: Mycosphaerella arachidis (Cercospora arachidicola); assay: Mycosphaerella arachidis (Cercospora arachidicola) / liquid culture (early leaf spot); assay type: cell-based; conditions: PDB potato dextrose broth, 24° C., 4-5 days after application, read-out: disease control (inhibition of growth determined photometrically)
Outline: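 Test compound, applied at 200 ppm from DMSO solution, was combined with spore-containing potato dextrose broth. Photometric growth inhibition was scored after 4-5 days at 24° C.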

[3] = test system: Glomerella lagenarium (Colletotrichum lagenarium); assay: Glomerella lagenarium (Colletotrichum lagenarium) / liquid culture (anthracnose); assay type: cell-based; conditions: Colletotrichum orbiculare, PDB potato dextrose broth, 24° C., 3-4 days after application, read-out: disease control (inhibition of growth measured photometrically)
Outline: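 Compound was applied at 200 ppm from DMSO solution, then potato dextrose broth carrying cryostored fungal spores was added. Growth inhibition was measured by photometry after 3-4 days of incubation at 24° C.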

[4] = test system: Mycosphaerella graminicola (Septoria tritici); assay: Mycosphaerella graminicola (Septoria tritici) / liquid culture (Septoria blotch); assay type: cell-based; conditions: Zymoseptoria tritici, PDB potato dextrose broth, 24° C., 4-5 days after application, read-out: disease control (inhibition of growth determined photometrically)
Outline: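 Growth inhibition was read photometrically 4-5 days after application, following incubation at 24° C of fungal conidia in potato dextrose broth over test compound (200 ppm, from DMSO solution) in microtiter plates.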

Fusarium culmorum = assay: microbe, parasite or virus in culture; assay type: cell-based; conditions: read-out: disease control (inhibition of growth determined visually)
[5] = test system: Thanatephorus cucumeris (Rhizoctonia solani); assay: Thanatephorus cucumeris (Rhizoctonia solani) / liquid culture (foot rot, damping-off); assay type: cell-based; conditions: PDB potato dextrose broth, 24° C., 3-4 days after application, read-out: disease control (inhibition of growth determined photometrically)
Outline: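 Photometric growth-inhibition readout taken 3-4 days after application, with cultures incubated at 24 °C. Test compound was applied at 200 ppm from DMSO solution to R. solani mycelial fragments in PDB.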

| SMILES | pest or weed control at 200 ppm (Phytophthora infestans) | inhibition at 200 ppm (Pythium ultimum) | melting point | inhibition at 200 ppm [1] | further results |
| --- | --- | --- | --- | --- | --- |
| O=C(NCc1ccc2c(c1)OCCO2)c1cc2c(cc1F)COB2O [Compound 121] | ≥ 80% | ≥ 80% |  |  | pest or weed control at 200 ppm (Plasmopara viticola): ≥ 80% |
| CCOC(=O)C1CC=CCC1NC(=O)c1cc2c(cc1F)COB2O (stereo not shown) [Compound 78] | ≥ 80% | ≥ 80% |  |  | inhibition at 200 ppm (Gaeumannomyces graminis): ≥ 80% |
| CC(=O)COC(=O)c1cc2c(cc1F)COB2O [Compound 448] |  | ≥ 80% | 122 to 124 °C | ≥ 80% |  |
| O=C(NCC1CCCO1)c1cc2c(cc1F)COB2O (stereo not shown) [Compound 94] | ≥ 80% | ≥ 80% |  |  |  |
| O=C(OCCO)c1cc2c(cc1F)COB2O [Compound 243] |  | ≥ 80% | 274 to 276 °C |  |  |
| COC(CNC(=O)c1cc2c(cc1Cl)COB2O)OC [Compound 435] |  |  | 150 to 152 °C |  |  |
| COC(CNC(=O)c1ccc2c(c1)B(O)OC2)OC [Compound 242] |  | ≥ 80% | 148 to 150 °C |  |  |
| COC(CNC(=O)c1cc2c(cc1F)COB2O)OC [Compound 53] |  | ≥ 80% | 150 to 152 °C |  |  |
| COc1ccc(CNC(=O)c2cc3c(cc2F)COB3O)cc1 [Compound 124] | ≥ 80% | ≥ 80% |  |  | pest or weed control at 200 ppm (Plasmopara viticola): ≥ 80% |
| O=C(NCc1ccco1)c1cc2c(cc1F)COB2O [Compound 144] |  | ≥ 80% | 158 to 160 °C | ≥ 80% | pest or weed control at 200 ppm (Plasmopara viticola): ≥ 80%; inhibition at 200 ppm (Gaeumannomyces graminis): ≥ 80%; inhibition at 200 ppm [2]: ≥ 80%; inhibition at 200 ppm [3]: ≥ 80%; inhibition at 200 ppm [4]: ≥ 80% |
| O=C(OCCO)c1ccc2c(c1)B(O)OC2 [Compound 244] |  | ≥ 80% | 122 to 124 °C | ≥ 80% |  |
| O=C(NCc1ccccc1OC(F)(F)F)c1cc2c(cc1F)COB2O [Compound 128] | ≥ 80% | ≥ 80% |  |  |  |
| C#CC1(NC(=O)c2cc3c(cc2F)COB3O)CCCCC1 [Compound 90] | ≥ 80% | ≥ 80% |  | ≥ 80% |  |
| CC(C#N)OC(=O)c1cc2c(cc1Cl)COB2O (stereo not shown) [Compound 193] | ≥ 80% | ≥ 80% |  |  |  |
| CC(C)c1ccc(NC(=O)c2cc3c(cc2F)COB3O)cc1 [Compound 146] |  | ≥ 80% | 184 to 186 °C | ≥ 80% | inhibition at 200 ppm (Fusarium culmorum): ≥ 80%; inhibition at 200 ppm [3]: ≥ 80%; inhibition at 200 ppm [4]: ≥ 80% |
| CC(=O)C(C)OC(=O)c1cc2c(cc1F)COB2O (stereo not shown) [Compound 445] |  | ≥ 80% | 108 to 110 °C |  |  |
| COC(COC(=O)c1cc2c(cc1F)COB2O)OC [Compound 444] |  | ≥ 80% | 109 to 111 °C |  |  |
| O=C(OCc1ccc(C(F)(F)F)nc1)c1cc2c(cc1Cl)COB2O [Compound 217] | ≥ 80% | ≥ 80% |  | ≥ 80% | inhibition at 200 ppm (Gaeumannomyces graminis): ≥ 80%; inhibition at 200 ppm [3]: ≥ 80% |
| O=C(NCc1ccccc1C(F)(F)F)c1cc2c(cc1F)COB2O [Compound 132] | ≥ 80% | ≥ 80% |  | ≥ 80% | pest or weed control at 200 ppm (Plasmopara viticola): ≥ 80%; inhibition at 200 ppm (Gaeumannomyces graminis): ≥ 80%; inhibition at 200 ppm [3]: ≥ 80% |
| CC(=O)COC(=O)c1cc2c(cc1Cl)COB2O [Compound 450] |  | ≥ 80% | 134 to 136 °C |  | pest or weed control at 200 ppm (Plasmopara viticola): ≥ 80%; inhibition at 200 ppm (Gaeumannomyces graminis): ≥ 80% |
| NC(=O)c1cc2c(cc1F)COB2O [Compound 436] |  | ≥ 80% | 216 to 218 °C |  |  |
| N#CCCOC(=O)c1cc2c(cc1Cl)COB2O [Compound 231] | ≥ 80% | ≥ 80% |  |  |  |

| SMILES | pest or weed control at 200 ppm (Phytophthora infestans) | inhibition at 200 ppm (Pythium ultimum) | melting point | inhibition at 200 ppm [1] | further results |
| --- | --- | --- | --- | --- | --- |
| CC(=O)C(C)OC(=O)c1ccc2c(c1)B(O)OC2 (stereo not shown) [Compound 447] |  | ≥ 80% | 110 to 112 °C | ≥ 80% | inhibition at 200 ppm (Gaeumannomyces graminis): ≥ 80% |
| COC(=O)c1cc2cc(NC(=O)c3cc4c(cc3F)COB4O)ccc2s1 [Compound 163] | ≥ 80% | ≥ 80% |  |  |  |
| CC(=O)c1sc(NC(=O)c2cc3c(cc2F)COB3O)nc1C [Compound 181] | ≥ 80% | ≥ 80% |  | ≥ 80% |  |
| O=C(OCC(F)F)c1cc2c(cc1Cl)COB2O [Compound 236] | ≥ 80% | ≥ 80% |  | ≥ 80% | inhibition at 200 ppm (Gaeumannomyces graminis): ≥ 80%; inhibition at 200 ppm [3]: ≥ 80%; inhibition at 200 ppm [4]: ≥ 80% |
| O=C(NCCSCc1ccccc1)c1cc2c(cc1Cl)COB2O [Compound 59] | ≥ 80% | ≥ 80% |  |  |  |
| C[Si](C)(C)COC(=O)c1cc2c(cc1F)COB2O [Compound 429] |  | ≥ 80% | 122 to 124 °C | ≥ 80% | inhibition at 200 ppm (Fusarium culmorum): ≥ 80%; pest or weed control at 200 ppm (Plasmopara viticola): ≥ 80%; inhibition at 200 ppm (Gaeumannomyces graminis): ≥ 80%; inhibition at 200 ppm [3]: ≥ 80%; inhibition at 200 ppm [5]: ≥ 80%; inhibition at 200 ppm [4]: ≥ 80% |
| O=C(NCc1ccc2c(c1)OCCO2)c1cc2c(cc1Cl)COB2O [Compound 87] | ≥ 80% | ≥ 80% |  |  |  |
| COC(=O)C(C)OC(=O)c1cc2c(cc1Cl)COB2O (stereo not shown) [Compound 206] | ≥ 80% | ≥ 80% |  |  | inhibition at 200 ppm [5]: ≥ 80% |
| O=C(Nc1cc(-c2ccccc2)[nH]n1)c1cc2c(cc1F)COB2O [Compound 182] | ≥ 80% | ≥ 80% |  |  | pest or weed control at 200 ppm (Plasmopara viticola): ≥ 80% |
| O=C(NCc1cccc(Cl)c1)c1cc2c(cc1F)COB2O [Compound 119] | ≥ 80% | ≥ 80% |  |  | pest or weed control at 200 ppm (Plasmopara viticola): ≥ 80% |
| CC(=O)C(C)OC(=O)c1cc2c(cc1Cl)COB2O (stereo not shown) [Compound 451] |  | ≥ 80% | 102 to 104 °C | ≥ 80% | pest or weed control at 200 ppm (Plasmopara viticola): ≥ 80%; inhibition at 200 ppm (Gaeumannomyces graminis): ≥ 80%; inhibition at 200 ppm [2]: ≥ 80%; inhibition at 200 ppm [4]: ≥ 80% |
| C#CCCCOC(=O)c1ccc2c(c1)B(O)OC2 [Compound 334] |  | ≥ 80% |  | ≥ 80% | inhibition at 200 ppm (Fusarium culmorum): ≥ 80%; pest or weed control at 200 ppm (Plasmopara viticola): ≥ 80%; inhibition at 200 ppm (Gaeumannomyces graminis): ≥ 80%; inhibition at 200 ppm [2]: ≥ 80%; inhibition at 200 ppm [3]: ≥ 80%; inhibition at 200 ppm [5]: ≥ 80%; inhibition at 200 ppm [4]: ≥ 80% |
| O=C(NCCSCc1ccccc1)c1cc2c(cc1F)COB2O [Compound 84] | ≥ 80% | ≥ 80% |  |  | pest or weed control at 200 ppm (Plasmopara viticola): ≥ 80% |
| O=C(NCc1ccc(Cl)nc1)c1cc2c(cc1F)COB2O [Compound 138] | ≥ 80% | ≥ 80% |  |  |  |
| COC(COC(=O)c1ccc2c(c1)B(O)OC2)OC [Compound 443] |  | ≥ 80% | 110 to 112 °C |  |  |
| O=C(Oc1ccccn1)c1cc2c(cc1F)COB2O [Compound 442] |  | ≥ 80% | 213 to 215 °C | ≥ 80% | inhibition at 200 ppm [5]: ≥ 80% |
| O=C(OCCO)c1cc2c(cc1Cl)COB2O [Compound 440] |  | ≥ 80% | 270 to 272 °C |  |  |
| O=C(NCc1ccc(Oc2ccccc2)cc1)c1cc2c(cc1F)COB2O [Compound 136] |  | ≥ 80% | 178 to 180 °C | ≥ 80% | inhibition at 200 ppm [2]: ≥ 80%; inhibition at 200 ppm [3]: ≥ 80%; inhibition at 200 ppm [4]: ≥ 80% |
| COc1ccc(-c2ccccc2)cc1NC(=O)c1cc2c(cc1Cl)COB2O [Compound 129] | ≥ 80% | ≥ 80% |  | ≥ 80% | inhibition at 200 ppm (Gaeumannomyces graminis): ≥ 80%; inhibition at 200 ppm [4]: ≥ 80% |
| O=C(OCCOc1ccc(Cl)cc1)c1ccc2c(c1)B(O)OC2 [Compound 352] |  | ≥ 80% | 122 to 124 °C | ≥ 80% | inhibition at 200 ppm (Gaeumannomyces graminis): ≥ 80%; inhibition at 200 ppm [2]: ≥ 80%; inhibition at 200 ppm [5]: ≥ 80%; inhibition at 200 ppm [4]: ≥ 80% |
| CON(C)C(=O)c1cc2c(cc1F)COB2O [Compound 51] |  | ≥ 80% | 144 to 146 °C |  |  |
